Tests used:
[1] = tested on: Verticillium; assay: Jar test 2016: Verticillium microsclerotia colonies in treated soil, dry soil plating on NP-10; format: cell-based, Verticillium dahliae; conditions: Metam 40 gal/acre (190 kg active/ha); 2016
Protocol: These investigations were performed under laboratory conditions in an initial jar test. We also investigated the pathogen control efficacy of LSS treatments, at 30 gal/acre (90 pounds/acre or 101 Kg/ha of calcium polysulfide) and at 90 gal/acre (276 pounds/acre or 310 Kg/ha of calcium polysulfide), and combined Metam/LSS treatments using Sectagon® brand metam at 20 gal/acre Metam (84 pounds/acre or 94 Kg/ha of metam sodium) with 40 gal/acre LSS (122 pounds/acre or 138 Kg/ha of calcium polysulfide); and at 30 gal/acre Metam (126 pounds/acre or […] of metam sodium) with 20 gal/acre LSS (60 pounds/acre or 67 kg/ha of calcium polysulfide). […] This may be due to lower water saturation in the 2016 tests compared to the saturation in 2015 tests, which was near 100%.
Each treatment listed in Table 1 was replicated 4 times. Verticillium levels in soil were assessed by dry incubation on semi selective media (NP-10) method. Soil collected from a Romaine lettuce field in Salinas, Calif. was used for the investigation. […]
Experimental Setup: Seven treatments were installed in 4 replicates each. […] The equivalent of gal/acre was calculated on the assumption that on acre of soil has an average weight of 3,625,895 lbs. […] Afterwards, soil was split between the two laboratories and were assessed according to the method described.
Verticillium levels in soil were assessed by dry incubation on semi selective media (NP-10). […]
The quantity of Verticillium in soil was assessed by dry soil plating on NP-10 semi-selective medium. […] After that, remaining soil was gently washed off the plates and the number of Verticillium microsclerotia colonies were counted on each plate under a microscope. The number of microsclerotia colonies is used as a standard method to quantify Verticillium in soil and was extrapolated for 1 g soil.
Results were analyzed in a one-way ANOVA (P=0.05) and a Fisher LSD Post-Hoc test. […]
Verticillium assessments were performed parallel in two separate laboratories. […] The quantity of Verticillium in soil was assessed by dry soil plating on NP-10 semi-selective medium. […]

[2] = tested on: Black Dot; assay: Field test near Moses Lake, Wash.: black dot colonies in soil after shank treatment; design: species or system Colletotrichum coccodes; conditions: single sample sites, 4 inches depth; metam 45 gal/acre; LSS 90 gal/acre; metam + LSS 30 + 30 gal/acre
Protocol: A field test was performed in small plots in a grower's location in near Moses Lake, Wash. using commercial equipment, shanking the product 8-9 inches into the ground, in February 2016. A few treated areas were sampled a few months after treatment. This field is believed to be low in pest pressure. […] The mixture is compatible as a ground application, including using standard tanks, hoses, nozzles, and shanks. It is believed the product will also be stable when added to water to form a dilute product, due to the sodium or potassium hydroxide in metam. Therefore, alkali sulfide salts need not be added.
Location 1 was treated with 45 gallons per acre of Sectagon®, the metam sodium solution, equivalent to 191 pounds metam sodium per acre. This is considered a standard treatment protocol. Section 2 was treated with only liquid lime sulfur, at 90 gallons per acre (276 pounds calcium polysulfide/acre). Section 3 was treated with 30 gallons per acre Sectagon® and 30 gallons per acre liquid lime sulfur (92 pounds calcium polysulfide and 127 pounds metam sodium per acre). The treatment chemicals were obtained from Tessenderlo Kerley. A sufficient time following the treatments, V. dahliae concentrations and black dot concentrations were determined at 4 inches depth and at 8 inches depth at three random sample sites in each treated plot. No controls were run, and the variability in samples were high. […]

[3] = tested on: soilborne disease; conditions: about 40 gallons of metam sodium per acre (190 Kg/ha); commercial conditions; cited from earlier work

## CNC(=S)S [Metam, sodium methyldithiocarbamate]
[1]
  Microsclerotia (Verticillium) per gram of soil, ms/g, 2016: 6.5 ms/g
[2]
  Black Dot, 4″: 0 colonies per gram of soil
[3]
  reduction of certain soilborne disease: ~70%
